This note sets out measurements from patent US20020026052A1, “3-cyanoquinolines, 3-cyano-1,6-naphthyridines, and 3-cyano-1,7-naphthyridines as protein kinase inhibitors” (American Home Products Corporation, priority 2000, published 2002).

Data set [1] concerns the target Rat2 fibroblasts stably transformed with v-Src/Hu c-Src fusion gene (Homo sapiens, UniProt P12931, cells depend on it, form not given). Description: Anchorage Independent Src-transformed Fibroblast Proliferation Assay. Type of data set: cell-based, Rat. The following applies: suspension growth, MTS reagent on Day 5; read-out: anch-indep src-tx fib IC50. The protocol: Anchorage Independent Src-transformed Fibroblast Proliferation Assay
Rat2 fibroblasts stably transformed with a plasmid containing a CMV promotor controlled v-Src/Hu c-Src fusion gene in which the catalytic domain of human c-Src was inserted in place of the v-Src catalytic domain in the v-Src gene are used for the measurement of src dependent suspension growth. […] Multiple entries for a given compound indicate that it was tested multiple times.
On the technique in general: Formazan colour is commonly taken as a measure of viable cells.

Chain of Rat2 fibroblasts stably transformed with v-Src/Hu c-Src fusion gene (P12931 whole entry, stated change not applied, the tested form may be a part): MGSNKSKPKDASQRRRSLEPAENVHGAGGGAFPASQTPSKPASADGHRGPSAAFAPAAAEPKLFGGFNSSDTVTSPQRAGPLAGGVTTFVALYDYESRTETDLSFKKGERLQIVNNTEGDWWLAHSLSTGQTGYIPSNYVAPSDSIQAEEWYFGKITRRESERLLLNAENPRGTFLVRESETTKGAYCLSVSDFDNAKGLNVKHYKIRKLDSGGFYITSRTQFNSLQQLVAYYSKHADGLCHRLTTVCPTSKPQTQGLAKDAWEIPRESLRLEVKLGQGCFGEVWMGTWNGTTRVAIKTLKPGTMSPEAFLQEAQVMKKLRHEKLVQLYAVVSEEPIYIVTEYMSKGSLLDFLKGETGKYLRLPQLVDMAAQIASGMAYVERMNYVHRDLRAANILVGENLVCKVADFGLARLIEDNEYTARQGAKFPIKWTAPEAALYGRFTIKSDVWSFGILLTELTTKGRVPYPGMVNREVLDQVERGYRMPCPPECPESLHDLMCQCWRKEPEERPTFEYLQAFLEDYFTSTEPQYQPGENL

One may read the melting point as the temperature, or range, at which the solid turns liquid. As to `COc1cc(Nc2c(C#N)cnc3cc(-c4ccc(C=O)n4C)ccc23)c(Cl)cc1Cl` [Example 69, 4-(2,4-Dichloro-5-methoxyanilino)-7-(5-formyl-1-methyl-1H-pyrrol-2-yl)-3-quinolinecarbonitrile], the melting point is 200 °C (dec.). In data set [1], the GI50 is above 10000 nM.

The compound `COc1cc(Nc2c(C#N)cnc3cc(-c4ccc(CN5CCOCC5)n4C)ccc23)c(Cl)cc1Cl` [Example 70, 4-(2,4-Dichloro-5-methoxyanilino)-7-[1-methyl-5-(4-morpholinylmethyl)-1H-pyrrol-2-yl]-3-quinolinecarbonitrile] had a melting point of 208 to 210 °C. Moreover, the GI50 in data set [1] came to 6000 nM.

For the compound `COc1cc(Nc2c(C#N)cnc3cc(-c4ccc(CN5CCN(C)CC5)n4C)ccc23)c(Cl)cc1Cl` [Example 71, 4-(2,4-Dichloro-5-methoxyanilino)-7-{1-methyl-5-[(4-methyl-1-piperazinyl)methyl]-1H-pyrrol-2-yl}-3-quinolinecarbonitrile], the melting point is 200 °C (dec.). The GI50 in data set [1] came out at 6800 nM.

`COc1cc(Nc2c(C#N)cnc3cc(-c4ccc(CNCCS(C)(=O)=O)n4C)ccc23)c(Cl)cc1Cl` [Example 73, 4-(2,4-dichloro-5-methoxyanilino)-7-[1-methyl-5-({[2-(methylsulfonyl)ethyl]amino}-methyl)-1H-pyrrol-2-yl]-3-quinolinecarbonitrile]: the melting point lay within 160 to 164 °C. Also, the GI50 in data set [1] is above 10000 nM.

The compound `COc1cc(Nc2c(C#N)cnc3cc(-c4ccc(CN5CCN(CCO)CC5)o4)ccc23)c(Cl)cc1Cl` [Example 75, 4-(2,4-Dichloro-5-methoxyanilino)-7-(5-{[4-(2-hydroxyethyl)-1-piperazinyl]methyl}-2-furyl)-3-quinolinecarbonitrile] showed a melting point of 176 to 181 °C. Also, the GI50 in data set [1] turned out to be 290 nM.

`COc1cc(Nc2c(C#N)cnc3cc(-c4ccc(CN(CCO)CCO)o4)ccc23)c(Cl)cc1Cl` [Example 76, 7-(5-{[Bis(2-hydroxyethyl)amino]methyl}-2-furyl)-4-(2,4-dichloro-5-methoxyanilino)-3-quinolinecarbonitrile] displayed a melting point of 155 to 160 °C. Further, the GI50 in data set [1] was 1100 nM.

Consider `COc1cc(Nc2c(C#N)cnc3cc(-c4ccc(CNCCS(C)(=O)=O)o4)ccc23)c(Cl)cc1Cl` [Example 77, 4-(2,4-Dichloro-5-methoxyanilino)-7-[5-({[2-(methylsulfonyl)ethyl]amino}methyl)-2-furyl]-3-quinolinecarbonitrile], for which the melting point was in the range of 171 to 174 °C. Moreover, in data set [1], the GI50 amounted to 420 nM.

`COc1cc(Nc2c(C#N)cnc3cc(-c4csc(CN5CCOCC5)c4)ccc23)c(Cl)cc1F` [Example 79, 4-{2-Chloro-4-fluoro-5-methoxyanilino)-7-[5-(4-morpholinylmethyl)-3-thienyl]-3-quinolinecarbonitrile] gave a melting point of 185 to 187 °C. Further, in data set [1], the GI50 stood at 130 nM.

Consider `COc1cc(Nc2c(C#N)cnc3cc(-c4csc(CN5CCOCC5)c4)ccc23)c(Cl)cc1C` [Example 80, 4-(2-chloro-5-methoxy-4-methylanilino)-7-[5-(4-morpholinylmethyl)-3-thienyl]-3-quinolinecarbonitrile], for which the melting point is 168 to 170 °C. Besides, the GI50 in data set [1] worked out at 80 nM.

In the case of `COc1cc(Nc2c(C#N)cnc3cc(-c4cc(CN5CCOCC5)c(CN5CCOCC5)s4)c(OC)cc23)c(Cl)cc1Cl` [Example 82, 7-[4,5-Bis(4-morpholinylmethyl)-2-thienyl]-4-(2,4-dichloro-5-methoxyanilino)-6-methoxy-3-quinolinecarbonitrile], the melting point is 120 to 124 °C. Further, in data set [1], the GI50 is 50 nM.

In turn, `COc1cc(Nc2c(C#N)cnc3cc(-c4ccc(C=O)cc4)ccc23)c(Cl)cc1Cl` [Example 83, 4-(2,4-dichloro-5-methoxyanilino)-7-(4-formylphenyl)-3-quinolinecarbonitrile] returned a melting point of 248 to 251 °C. For the same compound, in data set [1], the GI50 was 3900 nM.

In turn, `COc1cc(Nc2c(C#N)cnc3cc(-c4ccc(CN5CCC[C@@H]5C(N)=O)cc4)ccc23)c(Cl)cc1Cl` [Example 84, (2 R)-1-{4-[3-cyano-4-(2,4-dichloro-5-methoxyanilino)-7-quinolinyl]benzyl}-2-pyrrolidinecarboxamide] displayed a melting point of 180 to 182 °C. Besides, the GI50 in data set [1] was determined as 770 nM.

`COc1cc(Nc2c(C#N)cnc3cc(-c4ccc(CNCCS(=O)(=O)c5ccccc5)cc4)ccc23)c(Cl)cc1Cl` [Example 85, 4-(2,4-dichloro-5-methoxyanilino)-7-[4-({[2-(phenylsulfonyl)ethyl)amino}methyl)phenyl]-3-quinolinecarbonitrile] returned a melting point of 198 to 201 °C. In addition, the GI50 in data set [1] came to 10200 nM.

`COc1cc(Nc2c(C#N)cnc3cc(-c4ccc(CN(C)C)cc4)ccc23)c(Cl)cc1Cl` [Example 86, 4-(2,4-dichloro-5-methoxyanilino)-7-{4-[(dimethylamino)methyl]phenyl}-3-quinolinecarbonitrile] registered a melting point of 187 to 189 °C. Besides, the GI50 in data set [1] stood at 210 nM.

The compound `CCN(CC)Cc1ccc(-c2ccc3c(Nc4cc(OC)c(Cl)cc4Cl)c(C#N)cnc3c2)cc1` [Example 87, 4-(2,4-Dichloro-5-methoxyanilino)-7-{4-[(diethylamino)methyl]phenyl}-3-quinolinecarbonitrile] came in with a melting point of 191 to 195 °C. Further, the GI50 in data set [1] was found to be 220 nM.

Compound `COc1cc(Nc2c(C#N)cnc3cc(-c4ccc(CNCCS(C)(=O)=O)cc4)ccc23)c(Cl)cc1Cl` [Example 88, 4-(2,4-dichloro-5-methoxyanilino)-7-[4-({[2-(methylsulfonyl)ethyl]amino}methyl)phenyl]-3-quinolinecarbonitrile] came in with a melting point of 245 to 246 °C. Besides, in data set [1], the GI50 came out at 850 nM.

`COc1ccc(C#Cc2ccc3c(Nc4cc(OC)c(Cl)cc4Cl)c(C#N)cnc3c2)cc1` [Example 90, 4-(2,4-dichloro-5-methoxyanilino)-7-[2-(4-methoxyphenyl)ethynyl]-3-quinolinecarbonitrile] returned a melting point of 225 to 226 °C. Also, in data set [1], the GI50 was above 10000 nM.

`COc1cc(Nc2c(C#N)cnc3cc(-n4cccc4)ccc23)c(Cl)cc1Cl` [Example 92, 4-(2,4-Dichloro-5-methoxyanilino)-7-pyrrol-1-yl-3-quinolinecarbonitrile] displayed a melting point of 205 to 207 °C. The GI50 in data set [1] stood at 2110 nM.

For the compound `COc1cc(Nc2c(C#N)cnc3cc(-c4ccc(CO)cc4)ccc23)c(Cl)cc1Cl` [Example 101, 4-(2,4-Dichloro-5-methoxyanilino)-7-[4-(hydroxymethyl)phenyl]-3-quinolinecarbonitrile], the melting point is 264 to 267 °C. The GI50 in data set [1] is above 10000 nM.

The compound `COc1cc(Nc2c(C#N)cnc3cc(-c4ccc(CCl)cc4)ccc23)c(Cl)cc1Cl` [Example 102, 7-[4-(Chloromethyl)phenyl]-4-(2,4-dichloro-5-methoxyanilino)-3-quinolinecarbonitrile] yielded a melting point of 236 to 239 °C. Also, the GI50 in data set [1] was found to be 7500 nM.

In turn, `COc1cc(Nc2c(C#N)cnc3cc(-c4ncccc4CN4CCOCC4)ccc23)c(Cl)cc1Cl` [Example 111, 4-(2,4-Dichloro-5-methoxyanilino)-7-[3-(morpholin-4-ylmethyl)-pyridin-2-yl]-3-quinolinecarbonitrile] had a melting point of 151 to 154 °C. Moreover, the GI50 in data set [1] is above 10000 nM.

Compound `COc1cc(Nc2c(C#N)cnc3cc(-c4cccc5ccccc45)ccc23)c(Cl)cc1Cl` [Example 116, 4-(2,4-Dichloro-5-methoxyanilino)-7-(1-naphthyl)-3-quinolinecarbonitrile] had a melting point of 192 to 193 °C. The GI50 in data set [1] is above 10000 nM.

The compound `COc1cc(Nc2c(C#N)cnc3cc(-c4ccc5ccccc5c4)ccc23)c(Cl)cc1Cl` [Example 117, 4-(2,4-Dichloro-5-methoxyanilino)-7-(2-naphthyl)-3-quinolinecarbonitrile] gave a melting point of 243 to 244 °C. For the same compound, the GI50 in data set [1] was found to be 6900 nM.

In the case of `COc1cc(Nc2c(C#N)cnc3cc(-c4cccc(NC(C)=O)c4)ccc23)c(Cl)cc1Cl` [Example 118, N-{3-[3-Cyano-4-(2,4-dichloro-5-methoxyanilino)-7-quinolinyl]phenyl}acetamide], the melting point fell in the range of 262 to 263 °C. In data set [1], the GI50 was 3000 nM.

`COc1cc(Nc2c(C#N)cnc3cc(-c4cc5ccccc5o4)ccc23)c(Cl)cc1Cl` [Example 119, 7-(1-Benzofuran-2-yl)-4-(2,4-dichloro-5-methoxyanilino)-3-quinolinecarbonitrile] had a melting point of 276 to 277 °C. The GI50 in data set [1] was above 10000 nM.

In the case of `COc1cc(Nc2c(C#N)cnc3cc(-c4ccc(C(=O)O)cc4)ccc23)c(Cl)cc1Cl` [Example 121, 4-[3-Cyano-4-(2,4-dichloro-5-methoxyanilino)-7-quinolinyl]benzoic acid], the melting point was in the range of 282 to 283 °C. Besides, the GI50 in data set [1] was above 10000 nM.

The compound `COc1ccc(Cl)c(Nc2c(C#N)cnc3cc(-c4csc(CN5CCOCC5)c4)ccc23)c1` [Example 131, 4-(2-Chloro-5-methoxyanilino)-7-[5-(4-morpholinylmethyl)-3-thienyl]-3-quinolinecarbonitrie] showed a melting point of 110 to 115 °C. Moreover, the GI50 in data set [1] was 90 nM.

In turn, `COc1cc(Nc2c(C#N)cnc3cc(-c4ccc(CN5CCOCC5)c(CN5CCOCC5)c4)ccc23)c(Cl)cc1C` [Example 133, 7-[3 ,4-Bis(4-morpholinylmethyl)phenyl]-4-(2-chloro-5-methoxy-4-methylanilino)-3-quinolinecarbonitrile] displayed a melting point of 186 to 188 °C. In data set [1], the GI50 worked out at 730 nM.
